Reference: article PMC7266096 (ACS infectious diseases, 2020)
≈ marks a conversion by molar mass, not a printed value. Like-named read-outs stand apart in the source and are kept apart here. Marks after values point to notes of the source that are not given here.

What was measured:
NDM-1 [1] = target: T1, NDM-1 (Klebsiella pneumoniae, UniProt C7C422); experiment: biochemical; format: biochemical; settings: for inhibition of nitrocefin turnover: at the concentrations tested, up to 320 μM
Target sequence in this assay (C7C422 29-270, looked up): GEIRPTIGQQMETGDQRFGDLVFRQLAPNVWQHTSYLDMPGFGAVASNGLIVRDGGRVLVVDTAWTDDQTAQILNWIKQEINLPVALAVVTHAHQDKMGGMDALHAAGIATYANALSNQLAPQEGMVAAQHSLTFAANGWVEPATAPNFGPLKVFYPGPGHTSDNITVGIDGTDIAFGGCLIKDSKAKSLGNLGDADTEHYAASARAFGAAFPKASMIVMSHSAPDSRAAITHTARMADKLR

susceptible strains = settings: no reference given; cited from earlier work
[2] = tested on: E. coli UTI89 expressing NDM-1; experiment: microbe, parasite or virus in culture; format: cell-based; settings: for MIC: Escherichia coli; for UTI89 MIC: compound alone, Mueller-Hinton broth
[3] = tested on: E. coli MG1655 expressing NDM-1; experiment: microbe, parasite or virus in culture; format: cell-based; settings: for MIC: Escherichia coli; for MG1655 MIC: compound alone, 20 h, Mueller-Hinton broth
[4] = tested on: E. coli MG1655 expressing CTX-M-1; format: cell-based
[5] = tested on: E. coli MG1655 expressing NDM-1; format: cell-based
NDM-1 [6] = target: T1, NDM-1; format: cell-based, E. coli; settings: for reduction of nitrocefin turnover: 100 μM, treated for 60 minutes at room temperature
Target sequence in this assay (C7C422 37-270 limits assumed): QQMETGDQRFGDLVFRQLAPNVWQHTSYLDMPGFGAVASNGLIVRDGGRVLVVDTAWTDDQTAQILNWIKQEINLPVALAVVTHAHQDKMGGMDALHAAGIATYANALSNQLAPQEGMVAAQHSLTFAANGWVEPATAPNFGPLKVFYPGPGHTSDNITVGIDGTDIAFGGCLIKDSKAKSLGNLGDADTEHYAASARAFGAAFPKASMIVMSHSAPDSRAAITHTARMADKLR

NDM-1 [7] = target: T1, NDM-1; format: binding; settings: 10 μM NDM-1, after dialysis
Target sequence in this assay (C7C422 29-270, looked up): as the sequence (C7C422 29-270, looked up) above

NDM-1 [8] = target: T1, NDM-1; format: biochemical; settings: 0–60 μM inhibitor; for change of Vmax with increasing inhibitor concentration: 10 nM NDM-1, Figure S5; for inhibition mode: 10 nM NDM-1, nitrocefin 63–500 μM
Target sequence in this assay (C7C422 29-270, looked up): as above

CoCo-NDM-1 = CoCo-NDM-1 (Klebsiella pneumoniae, UniProt C7C422); format: binding; settings: 300 μM CoCo-NDM-1, one or two equivalents of compound
Sequence of CoCo-NDM-1 (C7C422 29-270, looked up): as above

NDM-1 [9] = target: T1, NDM-1; experiment: Turnover of PcephPT by purified NDM-1; format: biochemical; settings: 5 nM NDM-1, concentrations up to 160 μM, HEPES pH 7.2, 37 °C
Target sequence in this assay (C7C422 29-270, looked up): as above

[10] = MG1655, 20 h, read-out: MG1655 MIC
[11] = OD600 every 30 minutes over 20 h

SMILES: CO/N=C(\C(=O)N[C@@H]1C(=O)N2C(C(=O)O)=C(CSc3nc(=O)c(=O)[nH]n3C)CS[C@H]12)c1csc(N)n1 [Ceftriaxone]
- IC50 (NDM-1 [1]): 16 µM

SMILES: CC1=C(C(=O)O)N2C(=O)[C@@H](NC(=O)[C@H](N)c3ccccc3)[C@H]2SC1 [Cephalexin]
- IC50 (NDM-1 [1]): 36 µM

SMILES: CC(=O)OCC1=C(C(=O)O)N2C(=O)[C@@H](NC(=O)Cc3cccs3)[C@H]2SC1 [Cephalothin]
- IC50 (NDM-1 [1]): 9.1 µM

SMILES: O=C(O)c1cccc(C(=O)O)n1 [DPA, dipicolinic acid]
- IC50 (NDM-1 [1]): 1.8 µM

SMILES: C[C@@H](O)[C@H]1C(=O)N2C(C(=O)O)=C(SCCN=CN)C[C@H]12 [Imipenem]
- IC50 (NDM-1 [1]): > 100 µM
- inhibition of nitrocefin turnover (NDM-1 [1]): did not inhibit nitrocefin turnover

SMILES: C[C@@H](O)[C@H]1C(=O)N2C(C(=O)O)=C(S[C@@H]3CN[C@H](C(=O)N(C)C)C3)[C@H](C)[C@H]12 [Meropenem]
- MIC (susceptible strains): lower than 10 μM
- MIC ([2]; 20 h, read-out: UTI89 MIC): > 160 µM
- MIC ([2]; read-out: UTI89 MIC of meropenem): 10 µM
- UTI89 MIC ([2]; 20 h): >160 µM
- UTI89 MIC of meropenem ([2]; with fixed 10 μM PT): not restored
- UTI89 MIC of meropenem ([2]; with fixed 10 μM PcephPT): not restored
- IC50 (NDM-1 [1]): > 100 µM
- inhibition of nitrocefin turnover (NDM-1 [1]): did not inhibit nitrocefin turnover
- MIC [3, 10]: > 160 µM
- MIC ([3]; MG1655, read-out: MG1655 MIC of meropenem): 10 µM
- MG1655 MIC [3]: >160 µM
- MG1655 MIC of meropenem ([3]; with fixed 10 μM PT): not restored
- MG1655 MIC of meropenem ([3]; with fixed 10 μM PcephPT): not restored

SMILES: [O-][n+]1ccccc1S [PT, pyrithione]
- concentration that fully inhibits growth [4, 11]: ≥ 20 µM
- growth pattern ([4]; at 10 μM): delayed growth
- concentration that fully inhibits growth [5, 11]: ≥ 20 µM
- growth pattern ([5]; at 10 μM): delayed growth
- reduction of nitrocefin turnover (NDM-1 [6]): more than 75%
- zinc removed from NDM-1 (NDM-1 [7]; 40 μM (four equivalents)): did not lead to loss of zinc
- zinc removed from NDM-1 (NDM-1 [7]; 160 μM (sixteen equivalents)): did not lead to loss of zinc
- MIC ([2]; 20 h, read-out: UTI89 MIC): 40 µM (≈ 5.09 µg/mL)
- change of Vmax with increasing inhibitor concentration (NDM-1 [8]): clear decrease in Vmax
- inhibition mode (NDM-1 [8]): not competitive
- IC50 (NDM-1 [1]): 17 µM
- change of CoCo-NDM-1 UV-Vis spectrum (CoCo-NDM-1): increase in absorbance in the 500–650 nm region
- MIC [3, 10]: 20 µM (≈ 2.54 µg/mL)

SMILES: O=C(Cc1ccccc1)N[C@@H]1C(=O)N2C(C(=O)O)=C(CSc3cccc[n+]3[O-])CS[C@H]12 [PcephPT, 2-((((6R,7R)-2-carboxy-8-oxo-7-(2-phenylacetamido)-5-thia-1-azabicyclo[4.2.0]oct-2-en-3-yl)methyl)thio)pyridine 1-oxide]
- growth pattern ([4]; varying concentrations, compared with PT): identical to that caused by PT
- effect of addition of copper on growth pattern ([5]; Figure S3): no significant difference
- time of onset of growth inhibition ([5]; at concentrations of 40 μM and higher): between five and eight hours
- concentration giving delayed onset of growth inhibition ([5]; growth initially in all conditions): ≥ 40 µM
- turnover of compound by NDM-1 (NDM-1 [9]): turned over by 5 nM NDM-1 efficiently
- reduction of nitrocefin turnover (NDM-1 [6]): more than 75%
- inhibition of nitrocefin turnover (NDM-1 [6]; cells exposed for only 30 minutes, compared with 60 minutes): less inhibited
- zinc removed from NDM-1 (NDM-1 [7]; 40 μM (four equivalents)): did not lead to loss of zinc
- zinc removed from NDM-1 (NDM-1 [7]; 160 μM (sixteen equivalents)): did not lead to loss of zinc
- MIC ([2]; 20 h, read-out: UTI89 MIC): > 160 µM
- UTI89 MIC ([2]; 20 h): >160 ^* μM
- change of Vmax with increasing inhibitor concentration (NDM-1 [8]): clear decrease in Vmax
- inhibition mode (NDM-1 [8]): not competitive
- effect of increasing incubation time with NDM-1 on IC50 (NDM-1 [1]; Figure S2): did not affect its IC50
- change of CoCo-NDM-1 UV-Vis spectrum (CoCo-NDM-1): increase in absorbance in the 500–650 nm region
- MIC [3, 10]: > 160 µM
- MG1655 MIC [3]: >160 ^* μM

SMILES: c1ccc(CN(CCN(Cc2ccccn2)Cc2ccccn2)Cc2ccccn2)nc1 [TPEN, N,N,N′,N′-tetrakis(2-pyridinylmethyl)-1,2-ethanediamine]
- IC50 (NDM-1 [1]): 0.088 µM
